Laboratory results published in patent publication US8314240B2, “Sulfonamide compounds or salts thereof” (Astellas Pharma Inc., priority 2008, dated 2012).

Key:
rat EP1 receptor = biological target: T1, rat EP1 receptor (Rattus norvegicus, UniProt P70597); test: Test to measure receptor antagonistic activity using EP1 receptor-expressing cells (PGE2-induced intracellular Ca change, FLIPR); assay type: cell-based; settings: HEK293 cells stably expressing rat EP1 receptor, 100 nM PGE2
T1 construct: expressed in transfected cells
T1 sequence (P70597 1-405): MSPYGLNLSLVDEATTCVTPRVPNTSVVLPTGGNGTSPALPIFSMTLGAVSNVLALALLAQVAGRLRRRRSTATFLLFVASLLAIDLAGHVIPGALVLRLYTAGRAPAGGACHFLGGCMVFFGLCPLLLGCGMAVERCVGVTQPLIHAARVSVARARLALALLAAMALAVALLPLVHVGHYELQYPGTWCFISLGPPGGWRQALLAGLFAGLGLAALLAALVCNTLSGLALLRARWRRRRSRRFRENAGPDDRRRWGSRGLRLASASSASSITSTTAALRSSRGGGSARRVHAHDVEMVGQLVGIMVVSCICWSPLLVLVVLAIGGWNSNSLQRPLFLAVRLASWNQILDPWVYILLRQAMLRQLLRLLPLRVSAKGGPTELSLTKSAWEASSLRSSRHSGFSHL
Experimental: Test Example 1 Test to Measure Receptor Antagonistic Activity Using EP1 Receptor-Expressing Cells
HEK293 cells (American Type Culture Collection) that stably expressed rat EP1 receptor were dispensed onto a 96-well poly-D-lysine-coated plate (product name: BIOCOAT, PDL96W black/clear, by Nippon Becton Dickinson) at 2×10^4 cells/well on the day before the experiment, and incubated overnight at 37° C. under 5% carbon dioxide (CO2) in a culture medium containing 10% fetal bovine serum (FBS) (product name: DMEM, Invitrogen). The culture medium was replaced with a loading buffer (a washing solution containing 4 μM of fluorescent-labeled indicator (product name: Fluo3-AM, Dojindo): Hank's balanced salt solution (HBSS), 20 mM 2-[4-(2-hydroxyethyl)-1-piperazinyl]ethanesulfonic acid (HEPES)-sodium hydroxide (NaOH), 2.5 mM Probenecid, and 0.1% bovine serum albumin (BSA)), and left to stand at room temperature for 3 hours, and the cells were washed using a plate washer (product name: ELx405, Bio-Tek Instruments, Inc.) in which the washing solution had been set up. The compound that had been preliminarily dissolved and diluted in the washing solution was added thereto, and set up in a system for measuring the intracellular calcium (Ca) concentration (product name: FLIPR, Molecular Devices, Inc.). After 5 minutes, PGE2 was added to a final concentration of 100 nM, and the change in intracellular Ca concentration was measured. The difference between a maximum value and a minimum value in the intracellular Ca concentration change was determined, and retained as measurement data. When a response with addition of 100 nM PGE2 was taken as 0% and a response with addition of a buffer was taken as 100%, the concentration causing 50% inhibition was determined as an IC50 value. Further, in the table, Ex represents Example numbers as described later.

CYP3A4 [1] = biological target: T2, CYP3A4 (Homo sapiens, UniProt P08684); test: Cytochrome P450 (CYP) 3A4 enzyme inhibition, Inhibition Test I; assay type: in vitro ADME; settings: human liver microsomes, probe midazolam; human liver microsome 0.1 mg protein/ml, substrate midazolam, 37° C. 20 minutes; read-out: Inhibitory activity I (%)
T2 construct: human liver microsome (0.1 mg protein/ml); from tissue; host or cells: human liver microsome
Experimental: (§1) Test Example 4 Test on Cytochrome P450 (CYP) 3A4 Enzyme Inhibition (Evaluation of Drug Interaction)
(1) Inhibition Test I (Calculation of Inhibitory Activity I)
Using a 96-well plate, a substrate (midazolam), a test compound and human liver microsome (0.1 mg protein/ml) were incubated at 37° C. for 20 minutes in a 100 mM phosphate buffer containing 0.1 mM EDTA and 1 mM NADPH. Then, the reaction was stopped by adding an aqueous solution containing 80% acetonitrile. Thereafter, each sample was analyzed by LC/MS, and the inhibitory activity I was calculated using the following formula. Inhibitory Activity I(%)=100−Vi.I/V0.I×100
Vi,I: Metabolic rate of substrate in the presence of the test compound at a known concentration in the inhibition test I
V0,I: Metabolic rate of substrate in the absence of the test compound in the inhibition test I

CYP3A4 [2] = biological target: T2, CYP3A4; test: Cytochrome P450 (CYP) 3A4 enzyme inhibition, Inhibition Test II (preincubation); assay type: in vitro ADME; settings: human liver microsomes, pH 7.4, probe midazolam; human liver microsome 0.1 mg protein/ml, 30 minutes preincubation with test compound, then midazolam 20 minutes; read-out: Inhibitory activity II (%)
Experimental: as §1
(2) Inhibition Test II (Calculation of Inhibitory Activity II)
Using a 96-well plate, a test compound and human liver microsome (0.1 mg protein/ml) were incubated at 37° C. for 30 minutes in a total amount of 145 μl of 100 mM phosphate buffer (pH=7.4) containing 0.1 mM EDTA and 1 mM NADPH. Then, midazolam as the substrate was added thereto and incubated at 37° C. for 20 minutes. After the incubation, the reaction was stopped by adding an aqueous solution containing 80% acetonitrile. Thereafter, each sample was analyzed by LC/MS, and the inhibitory activity II was calculated using the following formula. Inhibitory Activity II(%)=100−Vi,II/V0,II/(100-inhibitory activity I(%))×100×100
Vi,II: Metabolic rate of substrate in the presence of the test compound at a known concentration in the inhibition test II
V0,II: Metabolic rate of substrate in the absence of the test compound in the inhibition test II

[3] = Test on metabolic stability in human liver microsome; assay type: in vitro ADME; settings: human liver microsomes, pH 7.4; human liver microsome 0.2 mg protein/ml, 37° C. 15 minutes, in vitro clearance by integration plot
Experimental: Test Example 5 Test on Metabolic Stability in Human Liver Microsome
Using a glass test tube, a test compound and human liver microsome (0.2 mg protein/ml) were incubated at 37° C. for 15 minutes in a 100 mM phosphate buffer (pH=7.4) containing 0.1 mM EDTA and 1 mM NADPH. Thereafter, the reaction was stopped by adding an aqueous solution containing 80% acetonitrile. Thereafter, each sample was analyzed by HPLC and the in vitro clearance (CLint) was calculated by an integration plot.

T2 sequence (P08684 whole entry): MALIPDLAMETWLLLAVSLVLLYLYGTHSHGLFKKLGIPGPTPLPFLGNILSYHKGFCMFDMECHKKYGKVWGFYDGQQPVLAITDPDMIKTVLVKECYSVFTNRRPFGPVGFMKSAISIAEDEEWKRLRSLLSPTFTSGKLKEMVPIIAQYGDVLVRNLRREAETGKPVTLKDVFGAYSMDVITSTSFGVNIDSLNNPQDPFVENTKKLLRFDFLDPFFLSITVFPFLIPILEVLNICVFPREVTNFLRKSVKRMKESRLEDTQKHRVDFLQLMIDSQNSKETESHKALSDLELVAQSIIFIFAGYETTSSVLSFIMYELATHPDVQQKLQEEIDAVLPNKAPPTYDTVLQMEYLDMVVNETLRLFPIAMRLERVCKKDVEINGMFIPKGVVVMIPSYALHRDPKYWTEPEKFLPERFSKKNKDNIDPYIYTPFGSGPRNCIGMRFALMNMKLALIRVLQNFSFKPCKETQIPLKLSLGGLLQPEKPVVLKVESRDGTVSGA

Molecule `Cc1cc(OCc2ccc(C(=O)O)cc2)c(N(C[C@@H](C)CF)S(=O)(=O)c2ccccn2)cc1C` [Example 117] has an IC50 (rat EP1 receptor) of 1.9 nM, an inhibition at 20 min (CYP3A4 [1]) of 3% and an inhibition at 20 min (CYP3A4 [2]) of 5%. For the same molecule, the CLint scaled [3] was 58 mL/min/kg.

In the case of `C[C@@H](F)CN(c1cc2c(cc1OCc1ccc(C(=O)O)cc1)CCC2)S(=O)(=O)c1ccccn1` [Example 102], the IC50 (rat EP1 receptor) is reported as 1.8 nM, the inhibition at 20 min (CYP3A4 [1]) is reported as 1% and the inhibition at 20 min (CYP3A4 [2]) is reported as 0%. It also gave a CLint scaled [3] of 244 mL/min/kg.

`Cc1cc(C(=O)O)ccc1COc1cc2c(cc1N(CC(C)F)S(=O)(=O)c1cc(F)cc(F)c1)CCC2` (stereo not shown) [Example 63] showed an IC50 (rat EP1 receptor) of 0.3 nM.

For `Cc1csc(S(=O)(=O)N(CC(C)F)c2cc(C)c(Cl)cc2OCc2ccc(C(=O)O)cc2)n1` (stereo not shown) [Example 71], the IC50 (rat EP1 receptor) was 0.32 nM and the CLint scaled [3] was 153 mL/min/kg.

Work on `Cc1csc(S(=O)(=O)N(C[C@H](C)F)c2cc3c(cc2OCc2ccc(C(=O)O)c(F)c2)CCC3)n1` [Example 113] yielded an IC50 (rat EP1 receptor) of 0.9 nM.

With `Cc1csc(S(=O)(=O)N(CC(C)F)c2cc3c(cc2OCc2ccc(C(=O)O)cc2C)CCC3)n1` (stereo not shown) [Example 66] the IC50 (rat EP1 receptor) was 0.53 nM.

`Cc1csc(S(=O)(=O)N(CC(C)F)c2cc3c(cc2OCc2ccc(C(=O)O)s2)CCC3)n1` (stereo not shown) [Example 80] gave an IC50 (rat EP1 receptor) of 0.85 nM and a CLint scaled [3] of 212 mL/min/kg.

In the case of `C[C@H](F)CN(c1cc2c(cc1OCc1ccc(C(=O)O)cc1)CCC2)S(=O)(=O)c1cccnc1` [Example 103], the IC50 (rat EP1 receptor) is reported as 0.4 nM, the inhibition at 20 min (CYP3A4 [1]) is reported as 12% and the inhibition at 20 min (CYP3A4 [2]) is reported as 7%. For the same molecule, the CLint scaled [3] was 228 mL/min/kg.
